Experimental data from patent EP4707280A1, “1,4-CINEOLE DERIVATIVE AND INTERMEDIATE THEREOF, HERBICIDE CONTAINING SAID DERIVATIVE AS ACTIVE INGREDIENT, METHOD FOR USING HERBICIDE, AND METHOD FOR PREPARING AGROCHEMICAL COMPOSITION” (HOKKO CHEMICAL INDUSTRY CO., LTD., priority 2023, dated 2024).

What was measured:
Format in all cases: in vivo
[1] = system: Echinochloa crus-galli var. formosensis at the three-leaf stage; experiment: Comparative Example: herbicidal effect test by application during growth period of paddy rice (three-leaf stage, Table 7); settings: active ingredient 7.5 g per 10 ares, emulsifiable concentrate applied by dropper to flooded pots, 21 days after chemical application, triplicate; for inhibition at 75 g/ha: 504 h, read-out: Weed inhibition rate (%)
Experimental: As an example, the herbicidal effect on Echinochloa crus-galli var. formosensis at the three-leaf stage was confirmed by the following method, and the results are specifically shown in Table 7 as a comparative example.
Wagner pots with an area of […] were filled with paddy soil, followed by addition of water and incorporation of chemical fertilizer (N:P:K = 16:16:16), after which puddling was performed. After that, 30 seeds of Echinochloa crus-galli var. formosensis were sown at a depth of 0 cm to 1 cm. Immediately after sowing, the pots were flooded and a water depth of approximately 3 cm was maintained. Subsequent management was conducted in a glass greenhouse. When Echinochloa crus-galli var. formosensis reached the three-leaf stage, an emulsifiable concentrate prepared according to Formulation Example 5 using the compound shown below was diluted with water, and a specified amount of the diluted solution was applied by dropper. The amount of the active ingredient to be applied was equivalent to 7.5 g per 10 ares. The test was conducted in triplicate for each chemical concentration group, and the weed inhibition rate (%) was determined 21 days after chemical application using the following formula (Math. 1).

[2] = system: Echinochloa crus-galli var. formosensis; experiment: Test Example 1: herbicidal effect test by soil application in paddy rice; settings: Echinochloa crus-galli, soil, 336 h; 120 g active ingredient per 10 ares; applied immediately after sowing, flooded pots; 14 days after application; read-out: weed inhibition rate
Outline: (§1)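 Pre-emergence paddy soil application, 120 g a.i./10 a, emulsifiable concentrate diluted in water, applied by dropper right after sowing. Seeds (30/species) sown 0–1 cm in puddled, fertilized soil; flooded ~3 cm; glass greenhouse.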

[3] = system: Echinochloa crus-galli var. formosensis; experiment: Test Example 2: herbicidal effect test by application during growth period of paddy rice; settings: Echinochloa crus-galli; 120 g per 10 ares; applied seven days after sowing, flooded pots; 14 days after application; read-out: weed inhibition rate
Outline: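 Greenhouse pots of flooded paddy soil, seeded shallowly with 30 seeds per weed, are treated on day 7 by dropper with diluted emulsifiable concentrate equal to 120 g a.i./10 a. Duplicate pots are scored for inhibition rate 14 days post-application.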

Amaranthus viridis [4] = experiment: Test Example 3: herbicidal effect test by soil application in upland field; settings: Amaranthus viridis, 120 g per 10 ares, sprayed one day after sowing, 14 days after application, read-out: weed inhibition rate
Outline: (§2)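 Weed inhibition (%) was assessed 14 days after treatment, in duplicate per concentration group. Seeds had been mixed into the upper 1 cm of upland alluvial loam, and the soil surface was sprayed one day later with the diluted emulsifiable concentrate at 120 g active ingredient per 10 ares.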

Digitaria ciliaris [5] = experiment: as above; settings: Digitaria ciliaris, 120 g per 10 ares, sprayed one day after sowing, 14 days after application, read-out: weed inhibition rate
Outline: as §2

Echinochloa crus-galli [6] = experiment: as above; settings: Echinochloa crus-galli, 120 g per 10 ares, sprayed one day after sowing, 14 days after application, read-out: weed inhibition rate
Outline: as §2

Echinochloa crus-galli [7] = experiment: Test Example 4: herbicidal effect test by stem and leaf treatment in upland field; settings: Echinochloa crus-galli; 120 g per 10 ares; sprayed seven days after sowing, upland soil; 14 days after application; read-out: weed inhibition rate
[8] = system: Echinochloa crus-galli var. formosensis; experiment: Test Example 5: herbicidal effect test by soil application in paddy rice (low dose); settings: Echinochloa crus-galli, soil, 336 h; 7.5 g per 10 ares; applied immediately after sowing, flooded pots; 14 days after application; read-out: weed inhibition rate
Outline: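 7.5 g a.i./10 a applied by dropper into ~3 cm floodwater immediately post-sowing (seeds 0–1 cm, 30 per species; puddled fertilized paddy soil, glasshouse). Duplicates; day-14 inhibition %.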

[9] = system: Echinochloa crus-galli var. formosensis; experiment: Test Example 6: herbicidal effect test by application during growth period of paddy rice (low dose); settings: Echinochloa crus-galli; 7.5 g per 10 ares; applied seven days after sowing, flooded pots; 14 days after application; read-out: weed inhibition rate
Outline: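 Emulsifiable concentrate, water-diluted, dropped onto flooded paddy pots 7 days post-sowing at 7.5 g active ingredient/10 a. Greenhouse-grown weeds; percent inhibition scored at day 14 after treatment.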

Digitaria ciliaris [10] = experiment: Test Example 7: herbicidal effect test by soil application in upland field (low dose); settings: Digitaria ciliaris, 7.5 g per 10 ares, sprayed one day after sowing, 14 days after application, read-out: weed inhibition rate
Outline: (§3)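 Duplicate pots of alluvial loam, seeds incorporated in the surface 1 cm. Soil surface sprayed 1 d after sowing (EC in water, 100 L/10 a; 7.5 g a.i./10 a). Endpoint: % inhibition, day 14.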

Echinochloa crus-galli [11] = experiment: as above; settings: Echinochloa crus-galli, 7.5 g per 10 ares, sprayed one day after sowing, 14 days after application, read-out: weed inhibition rate
Outline: as §3

Amaranthus viridis [12] = experiment: as above; settings: 7.5 g per 10 ares, sprayed one day after sowing, upland soil, 14 days after application, read-out: weed inhibition rate
Echinochloa crus-galli [13] = experiment: Test Example 8: herbicidal effect test by stem and leaf treatment in upland field (low dose); settings: Echinochloa crus-galli; 7.5 g per 10 ares; sprayed seven days after sowing, upland soil; 14 days after application; read-out: weed inhibition rate
Digitaria ciliaris [14] = experiment: Test Example 4: herbicidal effect test by stem and leaf treatment in upland field; settings: Digitaria ciliaris; 120 g per 10 ares; sprayed seven days after sowing, upland soil; 14 days after application; read-out: weed inhibition rate
Scirpus juncoides [15] = experiment: Test Example 1: herbicidal effect test by soil application in paddy rice; settings: Schoenoplectiella juncoides, soil, 336 h; 120 g active ingredient per 10 ares; applied immediately after sowing, flooded pots; 14 days after application; read-out: weed inhibition rate
Outline: as §1

Lindernia pyxidaria = experiment: as above; settings: 336 h, 120 g active ingredient per 10 ares, applied immediately after sowing, flooded pots, 14 days after application, read-out: weed inhibition rate
Experimental: (§4) Wagner pots with an area of […] were filled with paddy soil, followed by addition of water and incorporation of chemical fertilizer (N:P:K = 16:16:16), after which puddling was performed. After that, seeds of Echinochloa crus-galli var. formosensis, broad-leaved weeds (Lindernia pyxidaria and Monochoria vaginalis), and Scirpus juncoides were sown at a depth of 0 cm to 1 cm, 30 seeds each. Immediately after sowing, the pots were flooded and a water depth of approximately 3 cm was maintained. Subsequent management was conducted in a glass greenhouse. Immediately thereafter, an emulsifiable concentrate prepared according to Formulation Example 5 using the compound shown below was diluted with water, and a specified amount of the diluted solution was applied by dropper. The amount of the active ingredient to be applied was equivalent to 120 g per 10 ares.
(§5) The present test was conducted in duplicate for each chemical concentration group, and the weed inhibition rate (%) was determined 14 days after chemical application using the following formula (Math. 1). [formula]

Monochoria vaginalis = experiment: as above; settings: Pontederia vaginalis, soil, 336 h; 120 g active ingredient per 10 ares; applied immediately after sowing, flooded pots; 14 days after application; read-out: weed inhibition rate
Experimental: as §4, §5

Chenopodium album [16] = experiment: Test Example 4: herbicidal effect test by stem and leaf treatment in upland field; settings: 120 g per 10 ares, sprayed seven days after sowing, upland soil, 14 days after application, read-out: weed inhibition rate
Chenopodium album [17] = experiment: Test Example 3: herbicidal effect test by soil application in upland field; settings: 120 g per 10 ares, sprayed one day after sowing, 14 days after application, read-out: weed inhibition rate
Outline: as §2

Scirpus juncoides [18] = experiment: Test Example 5: herbicidal effect test by soil application in paddy rice (low dose); settings: Schoenoplectiella juncoides, 336 h, 7.5 g per 10 ares, applied immediately after sowing, flooded pots, 14 days after application, read-out: weed inhibition rate
Experimental: as §5
as §4, with “(Monochoria” for “(Lindernia pyxidaria and Monochoria”, “7.5” for “120”
The present test was conducted in duplicate for each chemical concentration group, and the herbicidal effect was evaluated 14 days after chemical application using the same criteria as in Test Example 1.

| Structure (SMILES) | inhibition at 75 g/ha [1] [%] | pest or weed control at 1200 g/ha [2] [%] | inhibition at 1200 g/ha [3] [%] | inhibition at 1200 g/ha (Amaranthus viridis [4]) [%] | inhibition at 1200 g/ha (Digitaria ciliaris [5]) [%] | inhibition at 1200 g/ha (Echinochloa crus-galli [6]) [%] | inhibition at 1200 g/ha (Echinochloa crus-galli [7]) [%] | inhibition at 75 g/ha [8] [%] | inhibition at 75 g/ha (Echinochloa crus-galli [11]) [%] | inhibition at 75 g/ha (Amaranthus viridis [12]) [%] | inhibition at 75 g/ha (Echinochloa crus-galli [13]) [%] | inhibition at 1200 g/ha (Digitaria ciliaris [14]) [%] | pest or weed control at 1200 g/ha (Scirpus juncoides [15]) [%] | also measured |
| --- | --- | --- | --- | --- | --- | --- | --- | --- | --- | --- | --- | --- | --- | --- |
| C=C1C(OCc2ccccc2C)C2(C)CCC1(C(C)C)O2 (centres unmarked) | – | – | – | – | – | – | – | – | – | – | – | – | – | Weed inhibition rate (%) [1]: 20% |
| Cc1ccccc1COC1CC2(C(C)C)CCC1(C)O2 (centres unmarked) | 73 | – | – | – | – | – | – | – | – | – | – | – | – | – |
| CC(C)[C@]12C[C@@H](OCc3ccccc3F)[C@](C)(C[C@H]1O)O2 [1-68, (1R,2R,4S,5R)-5-[(2-fluorophenyl)methoxy]-4-methyl-1-isopropyl-7-oxabicyclo[2.2.1]heptan-2-ol] | – | ≥ 80 | ≥ 80 | ≥ 80 | ≥ 80 | ≥ 80 | ≥ 80 | ≥ 80 | ≥ 80 | ≥ 80 | ≥ 80 | – | – | inhibition at 75 g/ha [9]: ≥ 80%; inhibition at 75 g/ha (Digitaria ciliaris [10]): ≥ 80% |
| CC(C)[C@]12C[C@@H](OCc3ccccc3F)[C@](C)(C[C@@H]1C)O2 [1-93, (1S,2R,4R,5S)-2-[(2-fluorophenyl)methoxy]-1,5-dimethyl-4-isopropyl-7-oxabicyclo[2.2.1]heptane] | 100 | ≥ 80 | ≥ 80 | – | ≥ 80 | ≥ 80 | ≥ 80 | – | – | – | – | ≥ 80 | – | – |
| CC(C)[C@]12C[C@@H](OCc3ccccc3F)[C@](C)(CC1c1ccc(F)cc1)O2 (stereo partly drawn) [1-924, (1S,2R,4R)-2-((2-fluorobenzyl)oxy)-5-(4-fluorophenyl)-4-isopropyl-1-methyl-7-oxabicyclo[2.2.1]heptane] | – | ≥ 80 | ≥ 80 | – | – | ≥ 80 | ≥ 80 | – | – | – | – | ≥ 80 | ≥ 80 | pest or weed control at 1200 g/ha (Lindernia pyxidaria): ≥ 80%; pest or weed control at 1200 g/ha (Monochoria vaginalis): ≥ 80%; inhibition at 1200 g/ha (Chenopodium album [16]): ≥ 80% |
| CC(C)[C@]12C[C@@H](OCc3ccccc3C(F)(F)F)[C@](C)(CC1=O)O2 [2-29, (1R,4S,5R)-1-isopropyl-4-methyl-5-((2-(trifluoromethyl)benzyl)oxy)-7-oxabicyclo[2.2.1]heptan-2-one] | – | ≥ 80 | ≥ 80 | ≥ 80 | ≥ 80 | ≥ 80 | ≥ 80 | ≥ 80 | ≥ 80 | ≥ 80 | ≥ 80 | ≥ 80 | ≥ 80 | inhibition at 1200 g/ha (Chenopodium album [17]): ≥ 80%; inhibition at 75 g/ha (Scirpus juncoides [18]): ≥ 80% |
